Test results from PMC10746708, “A small molecule iCDM-34 identified by in silico screening suppresses HBV DNA through activation of aryl hydrocarbon receptor” (Cell Death Discovery, 2023).

Key:
[1] = tested on: AhR signaling pathway; assay: CYP mRNA qPCR in 3D cultured FLC-4 cells; assay type: cell-based, human; conditions: 1, 10 μM, 1 day
Experimental: The human hepatocellular carcinoma cell line FLC-4 was cultured on micro-space cell culture plates (Elplasia SQ-200, -100, -24, Kuraray, Tokyo, Japan) maintained at 37 °C and 5 % CO2 according to the manufacturer’s protocol. FLC-4 cells suspended in DMEM/Ham’s F12 medium supplemented with 10% heat-inactivated fetal bovine serum, 100 U/mL penicillin G, and 100 μg/mL streptomycin were seeded at a density of 8.0 × 10^5 cells/well and cultured for 3 days. The medium was replenished every 72 h, completely removed, and replaced with serum-free medium containing 1–10 µM iCDM-34 or vehicle (DMSO). Total RNA was isolated from cells and reverse transcribed complementary DNA was subjected to quantitative qPCR. mRNA expression was determined using TaqMan Gene Expression Assays (Hs00167927_m1 for CYP1A2, Hs00604506_m1 for CYP3A4, for Hs00426397_m1 for CYP2C9; Thermo Fisher Scientific, Waltham, MA, USA). Expression levels were determined using the 2^–ΔΔCt method and were normalized to endogenous GAPDH mRNA expression levels.

[2] = tested on: HBV genotype C; assay: Anti-HBV activity in HBV-infected PXB cells (HBV DNA by qPCR); assay type: cell-based
Experimental: (§1) PXB cells (primary cultured human hepatocytes) were purchased from PhoenixBio (Higashi-Hiroshima, Japan) and cultured on collagen type I-coated 96- or 24-well plates in hepatocyte clonal growth medium at 37 °C and 5 % CO2 as previously described. RealTime-Glo MT Cell Viability Assay (Promega) and XTT assay were performed according to a previously established protocol.
PXB cells were plated on 96-well plate and infected with three genome equivalents per cell of HBV C_AT [33], and the medium was changed every 3 or 4 days. […] After treatment with these compounds, cellular DNA, medium DNA, and total RNA were automatically purified as per our previously established protocol. RNA purification of total RNA from cultured cells in the 24-well plate was performed using the RNeasy Mini Kit (Qiagen, Germantown, MD, USA) according to the manufacturer’s instructions.
HBV DNA copy numbers were determined using TaqMan Gene Expression Master Mix (Thermo Fisher Scientific) or Probe qPCR Mix (Takara Bio), specific primers, and probes in a qPCR system (Light Cycler 96 System, Roche, Basel, Switzerland or CFX96 Touch Real-Time PCR Detection System, Bio-Rad Laboratories, Hercules, CA, USA). The specific primers and probe used for detection of HBV DNA were as follows: forward primer: 5′-[…]-3′, reverse primer: 5′-[…]-3′, and probe: 5′-[FAM] […][TAM]-3′.

[3] = Liver microsomal stability, rat; assay type: in vitro ADME; conditions: rat liver microsomes
Experimental: (§2) Liver microsome stability studies (human, mouse, and rat) were performed at Sumika Chemical Analysis Service (Osaka, Japan) by following an established procedure. A mixture of 1 μM of substrate, 0.5 mg protein/mL of microsomes, and […] β-NADPH was incubated for 30 or 60 min and % remaining substrate was quantitatively measured by LC-MS/MS.

[4] = Metabolic analysis in vivo: blood concentration after injection; conditions: PXB-mice (cDNA-uPA^wild/+/SCID), other: injection, human hepatocyte-chimeric mouse, blood at 5-480 min, n = 1, read-out: t1/2 in blood
[5] = tested on: PXB cells; assay: Cell viability of HBV-infected PXB cells (RealTime-Glo MT); assay type: cell-based; conditions: 3 and 30 µM, with or without 10 nM ETV, 7 days
Experimental: as §1

[6] = target: interaction between HBx and DNA binding protein 1 (UniProt P03165+Q16531); assay: HBx - DNA binding protein 1 interaction; conditions: data not shown
[7] = Liver microsomal stability, human; assay type: in vitro ADME; conditions: human liver microsomes
Experimental: as §2

[8] = tested on: HCV replicon cells; assay: HCV replicon luciferase assay; assay type: cell-based; conditions: 0.05–30 µM, 3 days
Experimental: HCV replicon cells were plated on clear and white 96-well plates (TPP, 92096 and Greiner Bio-one, 655083) in DMEM, high glucose, GlutaMAX Supplement (Thermo Fisher Scientific, Waltham, MA, USA) containing 10 % fetal bovine serum, penicillin, and streptomycin. After 1 day, the cells were treated with 0.05–30 µM of iCDM-17 and iCDM-34 for 3 days. The quantity of HCV replicons was measured by a luciferase assay using Steady-Glo Luciferase Assay System (Promega, Madison, WI, USA). The cell viability was measured by XTT assay using Cell proliferation kit II (Roche, Mannheim, Germany) according to the established protocol.

[9] = tested on: CDK1/2; assay: CDK1/2 mRNA qPCR in HepG2-NTCP-C4 cells; assay type: cell-based, human; conditions: 30 μM
Experimental: HepG2-NTCP-C4 cells were plated on a 96-well plate in DMEM/F12 and GlutaMAX Supplement (Thermo Fisher Scientific) containing 10% fetal bovine serum, 10 mM HEPES, 5 μg/ml insulin, […] hydrocortisone, 200 U/ml penicillin, and 200 μg/ml streptomycin. After 1 day, the cells were treated with 30 μM iCDM-17 and iCDM-34 for 3, 8, 24 h. Total RNA was purified form the cells using Agencourt RNA advance (Beckman Courter). cDNA was synthesized using PrimeScript RT master mix (Takara Bio). CDK1, CDK2, β-actin mRNA amount was quantified by qPCR.
mRNA expression levels were measured by qPCR using specific primers or sets of specific primers and probe. RNA was reverse transcribed using PrimeScript RT Master Mix (Takara Bio, Shiga, Japan) to synthesize complementary DNA (cDNA). OAS1,glyceraldehyde 3-phosphate dehydrogenase (GAPDH), β-actin mRNA expression levels were measured using specific primers and TB Green Premix Ex Taq II (Takara Bio). AhR (Hs00169233_m), CDK1 (Hs00938777_m), CDK2 (Hs01548894_m) mRNA expression levels were measured using specific probe and primer sets (Thermo Fisher Scientific, Waltham, MA, USA) and Probe qPCR mix (Takara Bio) in a CFX96 Touch Real-Time PCR Detection System (Bio-Rad Laboratories, Hercules, CA, USA). […] Expression levels were determined using the 2^–ΔΔCt method and were normalized to endogenous β-actin mRNA expression levels.

[10] = 1 μM substrate, 0.5 mg protein/mL, 30 min
[11] = 1 μM substrate, 0.5 mg protein/mL, 60 min

Sequence of interaction between HBx and DNA binding protein 1 (Q16531 whole entry): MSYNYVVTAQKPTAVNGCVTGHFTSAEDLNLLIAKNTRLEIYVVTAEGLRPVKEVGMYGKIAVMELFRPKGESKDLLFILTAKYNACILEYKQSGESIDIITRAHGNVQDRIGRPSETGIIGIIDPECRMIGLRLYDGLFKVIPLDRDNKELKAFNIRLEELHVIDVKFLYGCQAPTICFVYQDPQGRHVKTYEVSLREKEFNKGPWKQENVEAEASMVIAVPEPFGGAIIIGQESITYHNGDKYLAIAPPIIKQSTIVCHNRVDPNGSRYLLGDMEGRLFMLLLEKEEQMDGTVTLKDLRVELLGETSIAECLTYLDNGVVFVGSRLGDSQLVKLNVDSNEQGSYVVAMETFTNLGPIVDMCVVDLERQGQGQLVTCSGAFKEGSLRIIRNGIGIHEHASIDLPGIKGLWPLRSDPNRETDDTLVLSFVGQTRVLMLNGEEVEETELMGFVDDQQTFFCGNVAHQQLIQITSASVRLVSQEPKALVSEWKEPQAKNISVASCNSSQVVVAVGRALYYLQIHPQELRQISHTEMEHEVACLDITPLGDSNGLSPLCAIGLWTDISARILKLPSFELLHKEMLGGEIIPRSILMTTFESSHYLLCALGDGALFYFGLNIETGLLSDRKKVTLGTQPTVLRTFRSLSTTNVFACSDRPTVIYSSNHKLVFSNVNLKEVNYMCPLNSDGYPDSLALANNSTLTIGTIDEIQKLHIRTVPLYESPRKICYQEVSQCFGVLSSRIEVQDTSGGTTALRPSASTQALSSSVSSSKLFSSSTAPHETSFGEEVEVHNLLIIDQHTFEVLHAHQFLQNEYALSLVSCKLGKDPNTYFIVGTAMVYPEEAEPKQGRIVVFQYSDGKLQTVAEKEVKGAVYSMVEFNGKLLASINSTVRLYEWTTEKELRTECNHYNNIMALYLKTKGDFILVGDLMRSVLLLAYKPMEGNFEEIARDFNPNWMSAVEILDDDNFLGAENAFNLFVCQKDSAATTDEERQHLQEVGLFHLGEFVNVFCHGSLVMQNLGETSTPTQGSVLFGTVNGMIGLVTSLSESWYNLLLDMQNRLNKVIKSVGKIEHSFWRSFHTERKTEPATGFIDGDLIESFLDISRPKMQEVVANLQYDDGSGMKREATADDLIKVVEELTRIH
Sequence of interaction between HBx and DNA binding protein 1 (P03165 whole entry): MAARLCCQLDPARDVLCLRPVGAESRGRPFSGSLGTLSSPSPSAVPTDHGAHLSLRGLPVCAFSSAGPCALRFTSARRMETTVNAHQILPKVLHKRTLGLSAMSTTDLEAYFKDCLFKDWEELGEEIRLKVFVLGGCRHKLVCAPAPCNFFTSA

With O=C(Nc1ccc(Br)cc1)c1ccn(Cn2cc([N+](=O)[O-])cn2)n1 [iCDM-34] the “CYP1A2 mRNA expression” value [1] was “increased expression”, the “medium HBV DNA” value ([2]; 30 µM, 7 days) was “inhibited” and the “effect of combination with ETV on cellular HBV DNA” value ([2]; 3 and 30 µM with 10 nM ETV, 7 days) was “additive effects”. The “cellular HBV DNA” value ([2]; 3 and 30 µM, 7 days, dose-dependent) was “decreased”, the IC50 ([2]; Hepatitis B virus, 168 h, HBV genotype C-infected PXB cells, 0.03–100 µM for 7 days, qPCR, read-out: half maximal inhibitory concentration, cellular HBV DNA) was 19.7 µM and the half-life at 1 μM [3] was 3.32 h. The remaining at 0.5 h, 1 μM [3, 10] was 90.2 ± 0.5%, the remaining at 1 h, 1 μM [3, 11] was 85.2 ± 0.3% and the half-life [4] was 0.383 h. The “cytotoxicity (cell viability)” value [5] was “no cytotoxicity”, the “inhibition of interaction between HBx and DNA binding protein 1” value [6] was “did not inhibit” and the half-life at 1 μM [7] was 8.43 h. The remaining at 0.5 h, 1 μM [7, 10] was 96.2 ± 3.2%, the remaining at 1 h, 1 μM [7, 11] was 94.1 ± 3.3% and the “HCV replication (replicon luciferase)” value [8] was “suppressed”. The “CDK2 mRNA expression levels” value ([9]; after 3 and 8 h) was “significantly suppressed” and the “CDK1 mRNA levels” value ([9]; after 8 and 24 h) was “significant suppression”.
